Results as given in PubChem BioAssay AID504777 (National Center for Advancing Translational Sciences (NCATS), 2011).

Tested on: mouse liver microsomes without NADPH, LC-MS/MS
Experiment: Enhancers of SMN2 Splice Variant Expression: Metabolic Stability in absence of NADPH Profiling
Conditions: at 1 µM; hits give high values
Description: Spinal muscular atrophy (SMA) is caused by insufficient levels of the survival motor neuron protein SMN. The SMN locus on chromosome 5q13 contains two inverted copies of SMN called SMN1 and SMN2 which are 99% identical at the amino acid level. SMN1 is a fully functional protein and SMN2 skips exon 7 90% of the time. Skipping of exon 7 produces non-functional protein product. 10% of the SMN2 protein includes exon 7 and is fully functional. In the SMA disease state, mutations in the SMN1 locus are the cause of the disease state. Because only 10% of SMN2 is of the fully functional form, it is not sufficient to overcome the deficiency produced by the loss of the SMN1 product. A therapy that either increase the amount of SMN2 product made or to increase the inclusion of exon 7 has been proposed for the treatment of SMA. Mouse liver microsomes are generated from lysed mouse liver. Liver microsomes contain many drug metabolizing enzymes, including Cytochome P-450s and flavin-containing monooxygenases. Because drug metabolism is major way of drug clearance, this is an important result. NIH Chemical Genomics Center [NCGC] NIH Molecular Libraries Probe Production centers Network [MLPCN] MLPCN Grant: R03 MH084179-01 Assay Submitter (PI): Elliot Androphy
1uM of compound in incubated in mouse liver microsome; the reference compound is ketanserin. […] Samples are analyzed with LC-MS/MS.

O=C(O)C1CCN(c2nc(-c3ccc(Br)cc3)cs2)CC1 gave a percent remaining of 95%.
